Reference: patent US20260256792A1, “TREATMENT OF CHRONIC SPONTANEOUS URTICARIA BY ADMINISTERING (R)-2-[3-[4-AMINO-3-(2-FLUORO-4-PHENOXY-PHENYL)PYRAZOLO[3,4-D]PYRIMIDIN-1-YL]PIPERIDINE-1-CARBONYL]-4-METHYL-4-[4-(OXETAN-3-YL)PIPERAZIN-1-YL]PENT-2-ENENITRILE” (priority 2023, published 2026)

System: angioedema in CSU patients
Test: Phase 2 CSU study: angioedema activity score over 7 days (AAS7)
Type: in vivo, human
Conditions: for Non-responder n (%), AAS7 = 0 / OR (95% CI) for rilzabrutinib vs. placebo, AAS7 = 0 / RRD (%) for rilzabrutinib vs. placebo (95% CI), AAS7 = 0 / Responder n (%), AAS7 = 0: outlier removed
Excerpt: The study comprises a 12 week, randomized, double-blind, placebo-controlled, multi-center, dose-ranging efficacy and safety phase, followed by a 40 week open label extension (OLE) phase (see FIG. 1). The study consists of three phases and an optional OLE phase. […] The weekly angioedema activity score (AAS7) was proposed as a tertiary endpoint. […] Patients were to complete the AAS using the e-diary. The e-diary was to be used once daily on the same time of each day recording of participant's answers to the angioedema activity score over 7 days (AAS7) questionnaire.

[1] = 400 mg TID, Week 1, ITT, angioedema at baseline
[2] = 400 mg TID, Week 1, omalizumab-naïve
[3] = 400 mg TID, Week 1, omalizumab-naïve, angioedema at baseline
[4] = 400 mg TID, Week 2, ITT, angioedema at baseline
[5] = 400 mg TID, Week 2, omalizumab-naïve
[6] = 400 mg TID, Week 2, omalizumab-naïve, angioedema at baseline
[7] = 400 mg TID, Week 3, ITT, angioedema at baseline
[8] = 400 mg TID, Week 3, omalizumab-naïve
[9] = 400 mg TID, Week 3, omalizumab-naïve, angioedema at baseline
[10] = 400 mg TID, Week 4, ITT, angioedema at baseline
[11] = 400 mg TID, Week 4, omalizumab-naïve

CC(C)(C=C(C#N)C(=O)N1CCC[C@@H](n2nc(-c3ccc(Oc4ccccc4)cc3F)c3c(N)ncnc32)C1)N1CCN(C2COC2)CC1 [rilzabrutinib, (R)-2-[3-[4-amino-3-(2-fluoro-4-phenoxy-phenyl)pyrazolo[3,4-d]pyrimidin-1-yl]piperidine-1-carbonyl]-4-methyl-4-[4-(oxetan-3-yl)piperazin-1-yl]pent-2-enenitrile]
Participants with AAS7 = 0, Responder n (%) (400 mg QPM, Week 12, omalizumab-naïve, angioedema at baseline): 6 (22.2) n (%)
LS mean change from baseline in AAS7 at Week 12 (400 mg TID, ITT population, angioedema at baseline): −43.36 points
AAS7 % Change difference for rilzabrutinib vs. placebo LS Mean (95% CI) [1]: −34.55 (−66.00, −3.09) %
AAS7 % Change from baseline LS Mean (SE) [1]: −54.51 (9.77) %
AAS7 Change difference for rilzabrutinib vs. placebo LS Mean (95% CI) [1]: −15.05 (−28.44, −1.67)
AAS7 Change from baseline LS Mean (SE) [1]: −29.55 (4.16)
AAS7 Post-baseline Mean (SD) [1]: 17.50 (22.29)
Non-responder n (%), AAS7 = 0 [2]: 16 (47.1) n (%)
OR (95% CI) for rilzabrutinib vs. placebo, AAS7 = 0 [2]: 2.576
RRD (%) for rilzabrutinib vs. placebo (95% CI), AAS7 = 0 [2]: 21.8 %
Responder n (%), AAS7 = 0 [2]: 18 (52.9) n (%)
AAS7 % Change difference for rilzabrutinib vs. placebo LS Mean (95% CI) [3]: −36.35 (−71.01, −1.69) %
AAS7 % Change from baseline LS Mean (SE) [3]: −53.40 (10.59) %
AAS7 = 0, Non-responder n (%) [3]: 16 (69.6) n (%)
AAS7 = 0, OR (95% CI) for rilzabrutinib vs. placebo [3]: 9.250
AAS7 = 0, RRD (%) for rilzabrutinib vs. placebo (95% CI) [3]: 21.8 %
AAS7 Change difference for rilzabrutinib vs. placebo LS Mean (95% CI) [3]: −16.03 (−30.69, −1.38)
AAS7 Change from baseline LS Mean (SE) [3]: −29.80 (4.48)
AAS7 Post-baseline Mean (SD) [3]: 18.96 (23.24)
Participants with AAS7 = 0, Responder n (%) [3]: 7 (30.4) n (%)
AAS7 % Change from baseline LS Mean (SE) [4]: −60.12 (12.38) %
AAS7 Change difference for rilzabrutinib vs. placebo LS Mean (95% CI) [4]: −11.45 (−23.02, 0.12)
AAS7 Change from baseline LS Mean (SE) [4]: −32.35 (4.37)
AAS7 Post-baseline Mean (SD) [4]: 15.52 (20.15)
Non-responder n (%), AAS7 = 0 [5]: 16 (47.1) n (%)
OR (95% CI) for rilzabrutinib vs. placebo, AAS7 = 0 [5]: 1.556
RRD (%) for rilzabrutinib vs. placebo (95% CI), AAS7 = 0 [5]: 10.2 %
Responder n (%), AAS7 = 0 [5]: 18 (52.9) n (%)
AAS7 % Change difference for rilzabrutinib vs. placebo LS Mean (95% CI) [6]: −22.03 (−57.92, 13.85) %
AAS7 % Change from baseline LS Mean (SE) [6]: −59.25 (13.33) %
AAS7 = 0, Non-responder n (%) [6]: 14 (60.9) n (%)
AAS7 = 0, OR (95% CI) for rilzabrutinib vs. placebo [6]: 1.922
AAS7 = 0, RRD (%) for rilzabrutinib vs. placebo (95% CI) [6]: 12.9 %
AAS7 Post-baseline Mean (SD) [6]: 17.03 (20.90)
Participants with AAS7 = 0, Responder n (%) [6]: 9 (39.1) n (%)
AAS7 % Change difference for rilzabrutinib vs. placebo LS Mean (95% CI) [7]: −24.93 (−66.27, 16.41) %
AAS7 % Change from baseline LS Mean (SE) [7]: −73.45 (15.58) %
AAS7 Change difference for rilzabrutinib vs. placebo LS Mean (95% CI) [7]: −12.00 (−23.87, −0.13)
AAS7 Change from baseline LS Mean (SE) [7]: −36.15 (4.48)
AAS7 Post-baseline Mean (SD) [7]: 13.26 (21.30)
Non-responder n (%), AAS7 = 0 [8]: 12 (35.3) n (%)
OR (95% CI) for rilzabrutinib vs. placebo, AAS7 = 0 [8]: 3.010
RRD (%) for rilzabrutinib vs. placebo (95% CI), AAS7 = 0 [8]: 26.5 %
Responder n (%), AAS7 = 0 [8]: 22 (64.7) n (%)
AAS7 % Change difference for rilzabrutinib vs. placebo LS Mean (95% CI) [9]: −25.10 (−70.77, 20.57) %
AAS7 % Change from baseline LS Mean (SE) [9]: −72.78 (16.93) %
AAS7 = 0, Non-responder n (%) [9]: 11 (47.8) n (%)
AAS7 = 0, OR (95% CI) for rilzabrutinib vs. placebo [9]: 3.063
AAS7 = 0, RRD (%) for rilzabrutinib vs. placebo (95% CI) [9]: 22.5 %
AAS7 Post-baseline Mean (SD) [9]: 14.08 (22.48)
Participants with AAS7 = 0, Responder n (%) [9]: 12 (52.2) n (%)
AAS7 % Change difference for rilzabrutinib vs. placebo LS Mean (95% CI) [10]: −41.77 (−78.55, −4.98) %
AAS7 % Change from baseline LS Mean (SE) [10]: −78.35 (13.78) %
AAS7 Change difference for rilzabrutinib vs. placebo LS Mean (95% CI) [10]: −15.67 (−27.11, −4.22)
AAS7 Change from baseline LS Mean (SE) [10]: −38.27 (4.30)
AAS7 Post-baseline Mean (SD) [10]: 11.20 (15.95)
Non-responder n (%), AAS7 = 0 [11]: 18 (52.9) n (%)
RRD (%) for rilzabrutinib vs. placebo (95% CI), AAS7 = 0 [11]: 1.1 %
Responder n (%), AAS7 = 0 [11]: 16 (47.1) n (%)
